ChEMBL document CHEMBL1201862, “PubChem BioAssay data set” (2004)
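Step 1: Grow cells in 96-well plates. Step 2: Expose to compound for 48 hours at 5 concentrations. Step 3: Interpolate endpoints linearly; if unreached, use highest concentration. GI50: concentration for 50% inhibition of growth.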 Active and inactive are the calls of the source. No stated cut-off is given here; in the data, active = GI50 up to about 1.1 µM and inactive = higher.

What was measured:
Test in all cases: NCI anticancer screen, dose series, 48 h
ACHN = test system: ACHN
HOP-62 = test system: HOP-62
K562 = test system: K562
KM12 = test system: KM12
NCI-H226 = test system: NCI-H226
NCI-H23 = test system: NCI-H23
NCI-H522 = test system: NCI-H522
OVCAR-5 = test system: OVCAR-5
SK-OV-3 = test system: SK-OV-3
SN12C = test system: SN12C
SNB-19 = test system: SNB-19
SNB-75 = test system: SNB-75
U-251 = test system: U-251
CAKI-1 = test system: CAKI-1

Measured: GI50

CC(C)(C)C1CCC(O)(c2ccccc2)CC1 (stereo not drawn)
inactive: ACHN > 100 µM | HOP-62 > 100 µM | K562 47.6 µM | KM12 > 100 µM | NCI-H226 > 100 µM | NCI-H23 > 100 µM | NCI-H522 40.6 µM | OVCAR-5 > 100 µM | SK-OV-3 > 100 µM | SN12C 69.5 µM | SNB-19 > 100 µM | SNB-75 86.7 µM | U-251 40.6 µM

CCOC(=O)C(=O)Nc1ccc(C)cc1C
inactive: ACHN > 100 µM | CAKI-1 > 100 µM | HOP-62 > 100 µM | K562 > 100 µM | KM12 > 100 µM | NCI-H226 > 100 µM | NCI-H23 > 100 µM | NCI-H522 > 100 µM | OVCAR-5 > 100 µM | SK-OV-3 > 100 µM | SN12C > 100 µM | SNB-19 > 100 µM | U-251 > 100 µM

c1ccc2c(c1)SC(=C1Sc3ccccc3S1)S2
inactive: ACHN > 100 µM | CAKI-1 > 100 µM | HOP-62 > 100 µM | K562 > 100 µM | NCI-H23 > 100 µM | SK-OV-3 > 100 µM | SN12C > 100 µM | SNB-19 > 100 µM | SNB-75 22.4 µM | U-251 > 100 µM

N#CCN1C(=O)c2cccc3cc([N+](=O)[O-])cc(c23)C1=O
inactive: ACHN 42.5 µM | HOP-62 41.1 µM | K562 27.5 µM | KM12 32 µM | NCI-H226 17.3 µM | NCI-H23 29.5 µM | OVCAR-5 31.3 µM | SK-OV-3 > 100 µM | SN12C 29.4 µM | SNB-19 84.9 µM | SNB-75 38 µM | U-251 38.7 µM

Cc1cc(C)c(-c2noc(-c3ccc(Cl)cc3)c2C2=NCCN2)c(C)c1
inactive: ACHN 23.1 µM | CAKI-1 76.4 µM | HOP-62 22.1 µM | K562 14.8 µM | KM12 21.6 µM | NCI-H226 23.8 µM | NCI-H23 17.4 µM | NCI-H522 > 10 µM | OVCAR-5 32.1 µM | SK-OV-3 13.7 µM | SN12C 20.3 µM | SNB-19 28.1 µM | SNB-75 17.1 µM | U-251 15.7 µM

COc1ccc(NC(=O)C/C(C)=N\N=C(N)N)c([N+](=O)[O-])c1
inactive: ACHN > 100 µM | CAKI-1 > 100 µM | HOP-62 > 100 µM | K562 > 100 µM | KM12 > 100 µM | NCI-H226 > 100 µM | NCI-H23 > 100 µM | NCI-H522 > 100 µM | OVCAR-5 > 100 µM | SK-OV-3 > 100 µM | SN12C > 100 µM | SNB-19 > 100 µM | SNB-75 > 100 µM | U-251 > 100 µM

N#CC1(Cc2ccc(N)cc2)c2ccccc2C=CN1C(=O)c1ccccc1 (stereo not drawn)
inactive: ACHN 31.7 µM | HOP-62 > 100 µM | K562 26.5 µM | KM12 47.5 µM | NCI-H226 39.2 µM | NCI-H23 47.1 µM | NCI-H522 60.1 µM | OVCAR-5 > 100 µM | SK-OV-3 66.4 µM | SN12C 41.2 µM | SNB-19 41.8 µM | SNB-75 29.3 µM | U-251 46.7 µM

CN(C)/C=N/c1nc2c(ncn2C2OC(CO)C(O)C2O)c(=O)[nH]1 (stereo not drawn)
inactive: ACHN > 100 µM | CAKI-1 > 100 µM | HOP-62 > 100 µM | K562 > 100 µM | KM12 > 100 µM | NCI-H226 > 100 µM | NCI-H23 > 100 µM | OVCAR-5 > 100 µM | SK-OV-3 > 100 µM | SN12C > 100 µM | SNB-19 > 100 µM | SNB-75 > 100 µM | U-251 > 100 µM

C#CCNC(=O)NCCCCC(NC(C)=O)C(=O)NCc1ccccc1 (stereo not drawn)
inactive: ACHN > 100 µM | CAKI-1 > 100 µM | HOP-62 > 100 µM | K562 > 100 µM | KM12 > 100 µM | NCI-H226 > 100 µM | NCI-H23 > 100 µM | NCI-H522 > 100 µM | OVCAR-5 > 100 µM | SK-OV-3 > 100 µM | SN12C > 100 µM | SNB-19 > 100 µM | SNB-75 > 100 µM | U-251 > 100 µM

CN1CCC(SC2Cc3cc(Cl)ccc3Sc3ccccc32)CC1 (stereo not drawn)
inactive: ACHN 14.6 µM | CAKI-1 10.7 µM | HOP-62 > 10 µM | K562 5.04 µM | KM12 10.3 µM | NCI-H226 15.1 µM | NCI-H23 14.1 µM | NCI-H522 13.9 µM | OVCAR-5 16.7 µM | SK-OV-3 15.8 µM | SN12C 14.6 µM | SNB-19 15.6 µM | SNB-75 8.79 µM | U-251 13.6 µM

N#Cc1cc([N+](=O)[O-])ccc1NC(=O)C(=O)C(C(=O)c1ccc2ccccc2c1)C1OCc2ccccc21 (stereo not drawn)
inactive: ACHN 14.1 µM | CAKI-1 9.4 µM | HOP-62 6.65 µM | K562 6.25 µM | KM12 15.4 µM | NCI-H226 1.68 µM | NCI-H23 4.5 µM | NCI-H522 7.29 µM | OVCAR-5 14.2 µM | SK-OV-3 24.8 µM | SN12C 13.7 µM | SNB-19 6.9 µM | SNB-75 4.23 µM | U-251 4 µM

C/C(=N\NS(=O)(=O)c1ccc(C)cc1)c1c(O)cc(C)oc1=O
inactive: ACHN > 100 µM | CAKI-1 > 100 µM | HOP-62 > 100 µM | K562 > 100 µM | KM12 > 100 µM | NCI-H226 > 100 µM | NCI-H23 > 100 µM | SK-OV-3 > 100 µM | SN12C > 100 µM | SNB-19 > 100 µM | SNB-75 > 100 µM | U-251 > 100 µM

CCCCCCN(CCCCCC)C(=O)Cc1c2n(c3ccccc13)Cc1ccccc1-2
inactive: ACHN 50.2 µM | CAKI-1 > 100 µM | HOP-62 86.7 µM | K562 33.4 µM | KM12 42.1 µM | NCI-H226 > 100 µM | NCI-H23 49.8 µM | NCI-H522 32.5 µM | SK-OV-3 > 100 µM | SN12C 52.5 µM | SNB-19 80.7 µM | SNB-75 > 100 µM | U-251 34.4 µM

Cc1nc(N)c(-c2ccccc2)s1
inactive: ACHN > 100 µM | CAKI-1 > 92.7 µM | HOP-62 > 100 µM | K562 > 70.5 µM | KM12 > 74.6 µM | NCI-H226 > 100 µM | NCI-H23 > 100 µM | NCI-H522 42.7 µM | OVCAR-5 > 100 µM | SK-OV-3 38.3 µM | SN12C 81.3 µM | SNB-19 80.7 µM | SNB-75 86.7 µM | U-251 > 48.5 µM

Cc1ccc2c(c1)-c1c3c(nn1-c1ccccc1)-c1ccccc1SC3O2 (stereo not drawn)
inactive: ACHN > 100 µM | HOP-62 > 100 µM | K562 > 100 µM | KM12 > 100 µM | NCI-H23 > 100 µM | NCI-H522 > 100 µM | OVCAR-5 97.1 µM | SK-OV-3 > 100 µM | SNB-75 > 100 µM | U-251 > 100 µM

CCCN(CCC)C(=O)C(=O)c1c(N)[nH]n(-c2ccccc2)c1=O
inactive: ACHN > 100 µM | CAKI-1 > 100 µM | K562 43.5 µM | KM12 96.4 µM | NCI-H226 > 100 µM | NCI-H23 > 100 µM | NCI-H522 > 100 µM | OVCAR-5 > 100 µM | SK-OV-3 > 100 µM | SN12C > 100 µM | SNB-19 > 100 µM | U-251 > 100 µM

CC1OC(OP(=O)(OCc2ccccc2)OCc2ccccc2)C(OC(=O)c2ccccc2)C(OC(=O)c2ccccc2)C1I (stereo not drawn)
inactive: ACHN 32.6 µM | CAKI-1 29.6 µM | HOP-62 > 100 µM | K562 29.3 µM | KM12 35 µM | NCI-H23 30.3 µM | NCI-H522 21.4 µM | OVCAR-5 98.6 µM | SK-OV-3 > 100 µM | SN12C 20.9 µM | SNB-19 43.8 µM | SNB-75 9.31 µM | U-251 50.4 µM

O=C(/C=C/c1ccccc1F)c1ccc([N+](=O)[O-])cc1
inactive: ACHN 31.2 µM | CAKI-1 15.5 µM | HOP-62 32.6 µM | K562 5.77 µM | NCI-H23 31.2 µM | SK-OV-3 56.5 µM | SN12C 37.8 µM | SNB-75 4.58 µM | U-251 15.1 µM

CC(C)c1cc2c(O)c(c1)Cc1cc(C(C)C)cc(c1O)Cc1cc(C(C)C)cc(c1O)Cc1cc(C(C)C)cc(c1O)Cc1cc(C(C)C)cc(c1O)Cc1cc(C(C)C)cc(c1O)C2
inactive: ACHN > 100 µM | HOP-62 > 100 µM | K562 > 100 µM | KM12 > 100 µM | NCI-H23 > 100 µM | NCI-H522 > 100 µM | OVCAR-5 > 100 µM | SN12C > 100 µM | SNB-19 > 100 µM | SNB-75 24.9 µM | U-251 > 100 µM

Cc1ccc(S(=O)(=O)NCCCN(CCCNS(=O)(=O)c2ccc(C)cc2)S(=O)(=O)c2ccc(C)cc2)cc1
inactive: ACHN > 100 µM | HOP-62 > 100 µM | K562 > 100 µM | KM12 89.1 µM | NCI-H226 > 100 µM | NCI-H23 > 100 µM | NCI-H522 > 100 µM | SK-OV-3 > 100 µM | SN12C > 100 µM | SNB-19 > 100 µM | SNB-75 > 100 µM | U-251 > 100 µM

COC(=O)C(=O)CC(=O)CCn1[nH]c(=O)c(Cl)c(Cl)c1=O
inactive: ACHN > 100 µM | CAKI-1 > 100 µM | HOP-62 > 100 µM | K562 > 100 µM | KM12 > 100 µM | NCI-H226 > 100 µM | NCI-H23 > 100 µM | NCI-H522 > 100 µM | OVCAR-5 > 100 µM | SN12C > 100 µM | SNB-19 > 100 µM | SNB-75 > 100 µM | U-251 > 100 µM
